Experimental findings from article PMC7415810, “A novel nucleolin-binding peptide for Cancer Theranostics” (Theranostics, 2020) are described below.

The subject of data set [1] is MDA-MB-231. In words: Whole-cell binding assay on OBOC peptide beads. The class given is cell-based, human. Particulars: peptide on TentaGel beads incubated with cells at 10^6 cells/ml; repeated 3 times. The procedure: (§1) The beads were washed extensively with double-distilled water and phosphate-buffered saline (PBS; Welgene Inc., Korea) before screening. Cancer and normal cells were detached from culture dishes with trypsin/EDTA (Gibco), washed with their corresponding culture medium, resuspended at 10^6 cells/ml, and incubated with OBOC beads in Petri dishes in a humidified CO2 incubator at 37 °C with shaking (60 rpm). Beads bound by cells appeared under a microscope as rosettes in which a central bead was covered by one or more layers of cells. The positive beads were picked with a pipette under an inverted microscope, treated with guanidine-HCL (8 M, 20 min) to remove cells and proteins on the bead surface, and subjected to a second round of screening with normal breast epithelial cells to eliminate false positive binding.
(§2) Note : Semiquantitative relative binding activity: “++++” very strong binding (>40 cells per bead), “+++” strong binding (30
(§3) -20 cells per bead), “+ +” moderate binding (20 - 10 cells per bead), “+” weak binding (5-10 cells per bead), “-” no binding. […]
(§4) Figure S1. A, Steps performed in peptide library synthesis and screening. 1, The split-mix synthesis method was performed to construct the combinatorial OBOC libraries. […]
(§5) sized. 3, OBOC libraries were incubated with cancer cells in a CO2 incubator. 4, Beads carrying ligands with an affinity for cell surface molecules became covered with cells. 5, The positive beads were picked with a pipette under an inverted microscope. 6, The peptide sequences for positive beads were determined by Edman microse - […]
(§6) peptide libraries. B, The binding specificities of the peptides against cancer cell and normal cells were deter- […]
(§7) breast and colorectal cancer cells and normal breast and colorectal cells were re-suspended at 10^6 cells/ml and incubated with beads. All experiments were repeated 3 times. Scale bar, 200 μm.

In data set [2] the test system is MCF-10A. In words: Whole-cell binding assay on OBOC peptide beads. In kind it is cell-based, human. On the set-up: key: ++++: very strong binding (>40 cells per bead); +++: strong binding (30 -20 cells per bead); ++: moderate binding (20 - 10 cells per bead); +: weak binding (5-10 cells per bead); -: no binding. Particulars: peptide on TentaGel beads incubated with cells at 10^6 cells/ml; repeated 3 times. The procedure:
as §1, §2, §3, §4, §5, §6, §7

A short description of data set [3]: in vivo. The following applies: mouse, iv. The procedure: After 15 min of centrifugation at 5,000 rpm and 4 °C, the plasma was obtained and stored at -80 °C. Plasma peptide concentrations were quantified by ELISA, and pharmacokinetic profiles were analyzed using Phoenix WinNonlin 8.1 (Pharsight Corporation, Mountain View, CA, USA). The area under the plasma concentration-time curve (AUC), distribution half-time (T1/2), maximum plasma concentration (Cmax) and time required to reach maximum plasma concentration (Tmax) values were directly determined from the experimental data. […]
bated at 37 °C for 0, 3, 6, 9, and 24 h. The portion of serum-treated peptide remaining was determined by calcu-lating the height of the respective elution peak in analytical-HPLC and comparing it with control without incuba- […]
Plasma peptide concentrations were quantified by ELISA, and pharmacokinetic profiles were analyzed using Phoenix WinNonlin 8.1 (Pharsight Corporation, Mountain View, CA, USA). The data are presented as the means ± standard deviation.

Data set [4] has as its system CCD-18Co. The following applies: read-out: IC50, CCD-18Co; 48 h treatment, WST-1. The method, then: (§8) Cancer and normal cells (1 × 10^4 cells/well) were seeded in 96-well plates, incubated for 24 h, and then treated with increasing concentrations of AGM-330, PTX, and AGM-330-PTX for 48 h. Cell viability was assessed by the CellVia WST-1 assay (Young In Frontier) according to the manufacturer's instructions. The numbers of viable cells were measured at a wavelength of 450 nm using a VersaMax ELISA plate reader (Molecular Devices, San Jose, CA, USA).
(§9) Figure S3. A-C, Cancer and normal cells (1 × 10^4 cells/well) were seeded in 96-well plates. After 24 h of incuba-tion, the cells were treated with an increasing concentration of dimeric or tetrameric AGM-330 for 48 h. The viability of cells grown in 0 % FBS (A), 5 % FBS (B) or 10 % FBS (C) was assessed by a CellVia WST-1 assay (Young In Frontier, Seoul, Korea) according to the manufacturer’s instruction. The numbers of viable cells were measured at a wavelength of 450 nm using an VersaMax ELISA plate reader (Molecular Devices). D, E, Binding specificity of AGM-330. A whole-cell binding assay was performed to determine the cell binding of AGM-330 in 1 % FBS (D) or 5 % FBS (E). Scale bar, 200 μm.
Background: Tetrazolium assays rely on reduction of a dye to a coloured formazan, in cell work by metabolically active cells.

Data set [5] deals with HCT-116. The following applies: read-out: IC50, HCT-116; 48 h treatment, WST-1. The method, then: as §8, §9
The test system of data set [6] is HT-29. Particulars: read-out: IC50, HT-29; 48 h treatment, WST-1. The procedure: as §8, §9
In data set [7] the test system is MCF-7. Particulars: read-out: IC50, MCF-7; 48 h treatment, WST-1. The procedure: as §8, §9
The subject of data set [8] is PI3K/Akt phosphorylation in MDA-MB-231 cells. The experiment in a line: Immunoblot analysis of PI3K/Akt signaling. In kind it is cell-based, human. The following applies: AGM-330 10, 50, 100 μM, anti-NCL antibody 20, 50 μg/mL. The procedure:
Cells were washed with PBS and lysed on ice for 30 min. Protein extracts were mixed with loading buffer, and boiled at 100 °C for 5 min. A total volume of 50 µl of the denatured protein samples were loaded on 10% gels. A voltage of 80 V was applied to samples and then adjusted to 120 V when protein reached the separation gel. Next, protein was transferred to PVDF membranes for 2 h at 4 °C. PVDF membranes were washed with TBS-T 3 times, and blocked with skim milk for 1 h at room temperature. Primary antibodies were used to detect AKT (1:1000; Abcam), p-AKT (1:1000; Abcam), PI3K (1:1000; Abcam), p-PI3K (1:1000; Abcam). Membranes were treated with primary antibody overnight at 4 °C, washed with TBS-T, and incubated with secondary antibody for 1 h at room temperature. Membranes were washed and developed.
Figure S8. A-D, Western blot analysis of PI3K/Akt signaling in MDA-MB-231 cells stimulated by increasing
concentrations of an anti-NCL antibody and AGM-330. After treatment with the anti-NCL antibody (A,B) or
AGM-330 (C,D), the protein levels of p-PI3K, PI3K, p-Akt and Akt were assessed by immunoblot analysis. The
For orientation: Immunoblotting shows a protein as a band on a membrane.

A value given as a limit tells only on which side of the number the result lay.

The Cmax is the highest concentration seen after dosing. The Tmax is the time at which the peak concentration occurs. As usually defined, the IC50 is the concentration that gives 50% inhibition. On to `CSCC[C@H](NC(=O)[C@H](C)NC(=O)CNC(=O)[C@H](Cc1c[nH]cn1)NC(=O)[C@@H](N)CCCNC(=N)N)C(=O)N[C@H](C(=O)N[C@@H](Cc1ccc(O)cc1)C(=O)N[C@@H](CC(C)C)C(=O)N[C@@H](CCCCN)C(=O)NCCOCCOCCOCCOCCOCCOCCOCCOCCOCCOCCOCCOCCC(=O)NCCCC[C@H](NC(=O)CCOCCOCCOCCOCCOCCOCCOCCOCCOCCOCCOCCOCCNC(=O)[C@H](CCCCN)NC(=O)[C@H](CC(C)C)NC(=O)[C@H](Cc1ccc(O)cc1)NC(=O)[C@@H](NC(=O)[C@H](CCSC)NC(=O)[C@H](C)NC(=O)CNC(=O)[C@H](Cc1c[nH]cn1)NC(=O)[C@@H](N)CCCNC(=N)N)C(C)C)C(=O)NCCCC[C@H](NC(=O)[C@H](CCCCNC(=O)CCOCCOCCOCCOCCOCCOCCOCCOCCOCCOCCOCCOCCNC(=O)[C@H](CCCCN)NC(=O)[C@H](CC(C)C)NC(=O)[C@H](Cc1ccc(O)cc1)NC(=O)[C@@H](NC(=O)[C@H](CCSC)NC(=O)[C@H](C)NC(=O)CNC(=O)[C@H](Cc1c[nH]cn1)NC(=O)[C@@H](N)CCCNC(=N)N)C(C)C)NC(=O)CCOCCOCCOCCOCCOCCOCCOCCOCCOCCOCCOCCOCCNC(=O)[C@H](CCCCN)NC(=O)[C@H](CC(C)C)NC(=O)[C@H](Cc1ccc(O)cc1)NC(=O)[C@@H](NC(=O)[C@H](CCSC)NC(=O)[C@H](C)NC(=O)CNC(=O)[C@H](Cc1c[nH]cn1)NC(=O)[C@@H](N)CCCNC(=N)N)C(C)C)C(=O)N[C@@H](CS)C(=O)O)C(C)C` [AGM-330], for which, in data set [1], the “Semiquantitative relative binding activity, MDA-MB-231” value is reported as “++++ (very strong binding (>40 cells per bead))”. Further, the “Semiquantitative relative binding activity, MCF-10A” value in data set [2] is “-”. The molecule further displayed a Cmax in data set [3] of 1880 ± 670 ng/mL. This molecule registered a T1/2 in data set [3] of 566 ± 72.6 min. The Tmax in data set [3] worked out at 10 min. The “peptide remaining after 24 h in vivo” value in data set [3] is reported as “more than 25%”. The IC50 in data set [4], in data set [5], in data set [6] and in data set [7] was more than 100 µM in each case. For the same molecule, the “effect on PI3K/Akt phosphorylation” value in data set [8] is recorded as “did not suppress”.
